Source: PMC3479967 (Evidence-based Complementary and Alternative Medicine : eCAM, 2012)

What was measured:
UGT2B7 = target: T1, UGT2B7 (Homo sapiens, UniProt P16662); test: Inhibition of recombinant UGT2B7 activity (4-MU glucuronidation)
T1 sequence (P16662 24-529): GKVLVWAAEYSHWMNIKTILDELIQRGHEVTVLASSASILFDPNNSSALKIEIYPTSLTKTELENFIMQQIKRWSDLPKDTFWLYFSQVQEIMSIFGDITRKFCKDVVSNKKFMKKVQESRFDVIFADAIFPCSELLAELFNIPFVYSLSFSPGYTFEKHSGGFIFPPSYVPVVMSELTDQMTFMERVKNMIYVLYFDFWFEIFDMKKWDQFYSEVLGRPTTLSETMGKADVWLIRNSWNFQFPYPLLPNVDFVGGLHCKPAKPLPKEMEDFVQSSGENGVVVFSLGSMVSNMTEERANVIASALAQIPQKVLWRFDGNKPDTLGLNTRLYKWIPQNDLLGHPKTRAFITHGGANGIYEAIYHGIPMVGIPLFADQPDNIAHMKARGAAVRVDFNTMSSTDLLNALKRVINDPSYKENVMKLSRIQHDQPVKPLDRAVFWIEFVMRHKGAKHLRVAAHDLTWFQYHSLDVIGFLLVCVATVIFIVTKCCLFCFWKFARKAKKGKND
Protocol: (§1) A panel of recombinant human UGT supersomes (UGT1A1, UGT1A3, UGT1A4, UGT1A6, UGT1A7, UGT1A8, UGT1A9, UGT1A10, UGT2B4, UGT2B7, UGT2B15, and UGT2B17) expressed in baculovirus-infected insect cells were purchased from BD Gentest Corp. (Woburn, MA, USA).
(§2) 4-MU, a nonselective substrate of UGTs, was used as probe substrate for all UGTs except UGT1A4. Incubations with each individual enzyme were conducted using conditions previously described. There was a 5 min preincubation step at 37°C before the reaction was started by addition of UDPGA. The incubation mixtures were then centrifuged at 20,500 ×g for 15 min to obtain the supernatant. Aliquots (20 μL) were then analyzed by HPLC. The HPLC system (SHIMADZU, Kyoto, Japan) consisted of an SCL-10A system controller, two LC-10AT pumps, a SIL-10A auto injector, and a SPD-10AVP UV detector. Chromatographic separation was achieved using a Kromasil ODS column (4.6 × 150 mm I.D., 5 μm particle size) at a flow rate of 1 mL/min and UV detection at 316 nm. The mobile phase consisted of 10 mM KH2PO4, pH 2.7 (A) and acetonitrile (B). The following gradient was applied at a flow rate of 1 mL/min: 0–4 min 80% A and 20% B, 4.1–8 min 50% A and 50% B, 8.1–12 min, 30% A and 70% B. All experiments were performed in two independent experiments in duplicate.
(§3) A typical incubation mixture contained recombinant human UGTs, 5 mM MgCl2, 5 mM UDPGA, 50 μg/mg protein alamethicin, 50 mM Tris-HCl buffer (pH 7.4), and various probe substrates of UGTs in the absence or presence of different concentrations of inhibitors. […] The final concentration of DMSO in the incubation system was 1% (v/v). […] Known UGT inhibitors were used as positive controls: diclofenac for UGT1A1, UGT1A6, UGT1A7, and UGT1A9; androsterone for UGT1A3, UGT2B7, and UGT2B15, phenylbutazone for UGT1A8 and UGT1A10, and hecogenin for UGT1A4, respectively. There is no positive control reported available for UGT2B4 and UGT2B17. The negative controls are the incubation without UDPGA. […] The final concentration of DMSO in the incubation system was 1% (v/v). […] There was a 5 min preincubation step at 37°C before the reaction was started by the addition of UDPGA. Incubation times were 120 min for UGT1A1, UGT1A10, UGT2B4, UGT2B15, and UGT2B17, 75 min for UGT1A3, and 30 min for UGT1A4, UGT1A6, UGT1A7, UGT1A8, and UGT1A9. The reactions were quenched by adding 100 μL acetonitrile and internal standard. The incubation mixtures were then centrifuged at 20,500 ×g for 15 min to obtain the supernatant. An aliquot of the supernatant was used for HPLC analysis as described above. All experiments were performed in two independent experiments in duplicate.
Inhibition data from experiments were graphically represented by Dixon plots. K i values were calculated by nonlinear regression using the equations for competitive inhibition (1), noncompetitive inhibition (2), or mixed inhibition (3), [22] […] The type of inhibition was determined from the enzyme inhibition models. Goodness of fit to kinetic and inhibition models was assessed from the F statistic, r ^2 values, parameter standard error estimates, and 95% confidence intervals. […]

UGT1A4 = target: T2, UGT1A4 (Homo sapiens, UniProt P22310); test: Inhibition of recombinant UGT1A4 activity (TFP glucuronidation); format: biochemical; conditions: recombinant UGT1A4
T2 construct: purchased BD Gentest Corp. (Woburn, MA, USA); host or cells: baculovirus-infected insect cells
T2 sequence (P22310 29-534): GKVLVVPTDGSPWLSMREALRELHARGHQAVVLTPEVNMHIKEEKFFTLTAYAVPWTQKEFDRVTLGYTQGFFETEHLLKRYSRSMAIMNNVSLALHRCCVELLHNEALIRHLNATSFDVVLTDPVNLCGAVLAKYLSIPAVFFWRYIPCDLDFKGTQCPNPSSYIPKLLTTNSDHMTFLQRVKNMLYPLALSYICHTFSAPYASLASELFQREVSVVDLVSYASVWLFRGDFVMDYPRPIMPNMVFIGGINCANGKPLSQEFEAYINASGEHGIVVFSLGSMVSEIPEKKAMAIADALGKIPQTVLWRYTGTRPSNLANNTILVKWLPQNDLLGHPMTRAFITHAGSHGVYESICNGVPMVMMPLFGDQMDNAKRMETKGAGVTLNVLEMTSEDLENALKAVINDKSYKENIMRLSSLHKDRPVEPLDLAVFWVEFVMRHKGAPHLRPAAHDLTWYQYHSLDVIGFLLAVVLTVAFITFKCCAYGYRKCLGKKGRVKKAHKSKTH
Protocol: TFP was used as the substrate for UGT1A4. Trifluoperazine glucuronide (TFPG) formation was measured using a modification of the method reported. […] Reactions were initiated by the addition of UDPGA and incubations were performed at 37°C in a shaking water bath for 20 min. Incubations were terminated by the addition of 4% acetic acid/96% methanol (0.2 mL) and then centrifuged at 20,500 ×g for 15 min. A 40 μL aliquot of the supernatant fraction was injected into the HPLC column. […] A gradient mobile phase consisting initially of 30 : 70, mobile phase A (acetonitrile) verse mobile phase B (0.5% formic acid/water) was brought to a composition of 90 : 10 in 10 min which was held for 7 min, all at a flow rate of 1 mL/min. Column eluant was monitored by UV absorbance 256 nm. […] The negative controls are the incubation without UDPGA.

UGT1A7 = target: T3, UGT1A7 (Homo sapiens, UniProt Q9HAW7); test: Inhibition of recombinant UGT1A7 activity (4-MU glucuronidation); conditions: recombinant UGT1A7
T3 sequence (Q9HAW7 26-530): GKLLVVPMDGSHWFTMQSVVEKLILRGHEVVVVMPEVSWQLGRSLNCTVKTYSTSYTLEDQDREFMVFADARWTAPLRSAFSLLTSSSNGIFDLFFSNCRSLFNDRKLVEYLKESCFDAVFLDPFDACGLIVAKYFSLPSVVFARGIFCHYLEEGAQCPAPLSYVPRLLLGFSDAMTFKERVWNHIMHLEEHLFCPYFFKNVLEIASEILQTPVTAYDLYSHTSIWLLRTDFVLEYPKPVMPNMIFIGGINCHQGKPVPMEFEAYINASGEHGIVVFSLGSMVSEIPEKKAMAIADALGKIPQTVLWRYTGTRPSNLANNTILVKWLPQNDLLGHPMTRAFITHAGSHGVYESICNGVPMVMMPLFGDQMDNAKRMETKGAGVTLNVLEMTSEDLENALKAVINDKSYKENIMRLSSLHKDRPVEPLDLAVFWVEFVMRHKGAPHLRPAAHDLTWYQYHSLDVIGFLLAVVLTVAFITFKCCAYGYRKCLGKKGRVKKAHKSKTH
Protocol: as §1, §2, §3
Inhibition data from experiments were graphically represented by Dixon plots. K i values were calculated by nonlinear regression using the equations for competitive inhibition (1), noncompetitive inhibition (2), or mixed inhibition (3), [22] (1) v =VmaxS/Km(1+(I/Ki))+S, (2) v =VmaxS/(Km+S)(1+(I/Ki)), (3) v =VmaxS/Km (1+(I/Ki))+S(1+(I/αKi)), where v is the velocity of the reaction; S and I are the substrate and inhibitor concentrations, respectively; K i is the inhibition constant describing the affinity of the inhibitor for the enzyme; K m is the substrate concentration at half of the maximum velocity (V max) of the reaction; α reflects the effect of inhibitor on the affinity of the enzyme for its substrate. The type of inhibition was determined from the enzyme inhibition models. Goodness of fit to kinetic and inhibition models was assessed from the F statistic, r ^2 values, parameter standard error estimates, and 95% confidence intervals. Kinetic constants are reported as the mean value ± standard error of the parameter estimate.

Icariside II was tested, and the “Inhibition type against UGT2B7” value (UGT2B7; recombinant UGT2B7) was “mixed”, the “α of mixed inhibition against UGT2B7” value (UGT2B7; recombinant UGT2B7, mixed inhibition model) was 3.3 and the “Inhibition type against UGT1A4” value (UGT1A4) was “competitive”. For the same substance, the “Inhibition type against UGT1A7” value (UGT1A7) was “noncompetitive”.
